In patent US8785457B2 (Cellzome Limited, priority 2009, dated 2014):
pIC50: −log10 of the molar value.

Key:
[1] = biological target: T1, DNA-dependent protein kinase (DNA-PK) (Homo sapiens, UniProt P78527); assay: kinobeads assay, DNA-PK; format: binding; conditions: Further Kinobeads Data; read-out: DNAPK
T1 construct: endogenous in cells; host or cells: Jurkat, clone E6-1 (ATCC TIB-152) cell lysate
How it was run: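 Competitive binding in Jurkat cell lysate (5 mg/mL protein) against beads carrying an immobilized phenylmorpholin-chromen ligand, in DP buffer pH 7.4 with NP40, DTT and NaF. Bead-bound kinases were eluted and quantified by antibody dot blot with infrared detection, and IC50 was taken from dose-response curves of a 1:3 dilution series.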

[2] = test system: S6RP serine-240/244 phosphorylation; assay: In vitro Phospho-S6 cellular assay (pS6RP S240/244) in HEK293T/17 cells; format: cell-based; conditions: Homo sapiens, 2 hours, read-out: pS6 IC50
How it was run: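 Compounds were tested at eight concentrations on adhered HEK293T/17 cells for 2 h at 37 °C (2% FCS, 0.1% DMSO), at 80,000 cells/well for pAkt S473 and 40,000 for pS6RP S240/244. Lysates were captured on phospho-specific antibody MSD plates with Sulfo-Tag detection. Values came from nonlinear variable-slope regression.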

T1 sequence (P78527 whole entry): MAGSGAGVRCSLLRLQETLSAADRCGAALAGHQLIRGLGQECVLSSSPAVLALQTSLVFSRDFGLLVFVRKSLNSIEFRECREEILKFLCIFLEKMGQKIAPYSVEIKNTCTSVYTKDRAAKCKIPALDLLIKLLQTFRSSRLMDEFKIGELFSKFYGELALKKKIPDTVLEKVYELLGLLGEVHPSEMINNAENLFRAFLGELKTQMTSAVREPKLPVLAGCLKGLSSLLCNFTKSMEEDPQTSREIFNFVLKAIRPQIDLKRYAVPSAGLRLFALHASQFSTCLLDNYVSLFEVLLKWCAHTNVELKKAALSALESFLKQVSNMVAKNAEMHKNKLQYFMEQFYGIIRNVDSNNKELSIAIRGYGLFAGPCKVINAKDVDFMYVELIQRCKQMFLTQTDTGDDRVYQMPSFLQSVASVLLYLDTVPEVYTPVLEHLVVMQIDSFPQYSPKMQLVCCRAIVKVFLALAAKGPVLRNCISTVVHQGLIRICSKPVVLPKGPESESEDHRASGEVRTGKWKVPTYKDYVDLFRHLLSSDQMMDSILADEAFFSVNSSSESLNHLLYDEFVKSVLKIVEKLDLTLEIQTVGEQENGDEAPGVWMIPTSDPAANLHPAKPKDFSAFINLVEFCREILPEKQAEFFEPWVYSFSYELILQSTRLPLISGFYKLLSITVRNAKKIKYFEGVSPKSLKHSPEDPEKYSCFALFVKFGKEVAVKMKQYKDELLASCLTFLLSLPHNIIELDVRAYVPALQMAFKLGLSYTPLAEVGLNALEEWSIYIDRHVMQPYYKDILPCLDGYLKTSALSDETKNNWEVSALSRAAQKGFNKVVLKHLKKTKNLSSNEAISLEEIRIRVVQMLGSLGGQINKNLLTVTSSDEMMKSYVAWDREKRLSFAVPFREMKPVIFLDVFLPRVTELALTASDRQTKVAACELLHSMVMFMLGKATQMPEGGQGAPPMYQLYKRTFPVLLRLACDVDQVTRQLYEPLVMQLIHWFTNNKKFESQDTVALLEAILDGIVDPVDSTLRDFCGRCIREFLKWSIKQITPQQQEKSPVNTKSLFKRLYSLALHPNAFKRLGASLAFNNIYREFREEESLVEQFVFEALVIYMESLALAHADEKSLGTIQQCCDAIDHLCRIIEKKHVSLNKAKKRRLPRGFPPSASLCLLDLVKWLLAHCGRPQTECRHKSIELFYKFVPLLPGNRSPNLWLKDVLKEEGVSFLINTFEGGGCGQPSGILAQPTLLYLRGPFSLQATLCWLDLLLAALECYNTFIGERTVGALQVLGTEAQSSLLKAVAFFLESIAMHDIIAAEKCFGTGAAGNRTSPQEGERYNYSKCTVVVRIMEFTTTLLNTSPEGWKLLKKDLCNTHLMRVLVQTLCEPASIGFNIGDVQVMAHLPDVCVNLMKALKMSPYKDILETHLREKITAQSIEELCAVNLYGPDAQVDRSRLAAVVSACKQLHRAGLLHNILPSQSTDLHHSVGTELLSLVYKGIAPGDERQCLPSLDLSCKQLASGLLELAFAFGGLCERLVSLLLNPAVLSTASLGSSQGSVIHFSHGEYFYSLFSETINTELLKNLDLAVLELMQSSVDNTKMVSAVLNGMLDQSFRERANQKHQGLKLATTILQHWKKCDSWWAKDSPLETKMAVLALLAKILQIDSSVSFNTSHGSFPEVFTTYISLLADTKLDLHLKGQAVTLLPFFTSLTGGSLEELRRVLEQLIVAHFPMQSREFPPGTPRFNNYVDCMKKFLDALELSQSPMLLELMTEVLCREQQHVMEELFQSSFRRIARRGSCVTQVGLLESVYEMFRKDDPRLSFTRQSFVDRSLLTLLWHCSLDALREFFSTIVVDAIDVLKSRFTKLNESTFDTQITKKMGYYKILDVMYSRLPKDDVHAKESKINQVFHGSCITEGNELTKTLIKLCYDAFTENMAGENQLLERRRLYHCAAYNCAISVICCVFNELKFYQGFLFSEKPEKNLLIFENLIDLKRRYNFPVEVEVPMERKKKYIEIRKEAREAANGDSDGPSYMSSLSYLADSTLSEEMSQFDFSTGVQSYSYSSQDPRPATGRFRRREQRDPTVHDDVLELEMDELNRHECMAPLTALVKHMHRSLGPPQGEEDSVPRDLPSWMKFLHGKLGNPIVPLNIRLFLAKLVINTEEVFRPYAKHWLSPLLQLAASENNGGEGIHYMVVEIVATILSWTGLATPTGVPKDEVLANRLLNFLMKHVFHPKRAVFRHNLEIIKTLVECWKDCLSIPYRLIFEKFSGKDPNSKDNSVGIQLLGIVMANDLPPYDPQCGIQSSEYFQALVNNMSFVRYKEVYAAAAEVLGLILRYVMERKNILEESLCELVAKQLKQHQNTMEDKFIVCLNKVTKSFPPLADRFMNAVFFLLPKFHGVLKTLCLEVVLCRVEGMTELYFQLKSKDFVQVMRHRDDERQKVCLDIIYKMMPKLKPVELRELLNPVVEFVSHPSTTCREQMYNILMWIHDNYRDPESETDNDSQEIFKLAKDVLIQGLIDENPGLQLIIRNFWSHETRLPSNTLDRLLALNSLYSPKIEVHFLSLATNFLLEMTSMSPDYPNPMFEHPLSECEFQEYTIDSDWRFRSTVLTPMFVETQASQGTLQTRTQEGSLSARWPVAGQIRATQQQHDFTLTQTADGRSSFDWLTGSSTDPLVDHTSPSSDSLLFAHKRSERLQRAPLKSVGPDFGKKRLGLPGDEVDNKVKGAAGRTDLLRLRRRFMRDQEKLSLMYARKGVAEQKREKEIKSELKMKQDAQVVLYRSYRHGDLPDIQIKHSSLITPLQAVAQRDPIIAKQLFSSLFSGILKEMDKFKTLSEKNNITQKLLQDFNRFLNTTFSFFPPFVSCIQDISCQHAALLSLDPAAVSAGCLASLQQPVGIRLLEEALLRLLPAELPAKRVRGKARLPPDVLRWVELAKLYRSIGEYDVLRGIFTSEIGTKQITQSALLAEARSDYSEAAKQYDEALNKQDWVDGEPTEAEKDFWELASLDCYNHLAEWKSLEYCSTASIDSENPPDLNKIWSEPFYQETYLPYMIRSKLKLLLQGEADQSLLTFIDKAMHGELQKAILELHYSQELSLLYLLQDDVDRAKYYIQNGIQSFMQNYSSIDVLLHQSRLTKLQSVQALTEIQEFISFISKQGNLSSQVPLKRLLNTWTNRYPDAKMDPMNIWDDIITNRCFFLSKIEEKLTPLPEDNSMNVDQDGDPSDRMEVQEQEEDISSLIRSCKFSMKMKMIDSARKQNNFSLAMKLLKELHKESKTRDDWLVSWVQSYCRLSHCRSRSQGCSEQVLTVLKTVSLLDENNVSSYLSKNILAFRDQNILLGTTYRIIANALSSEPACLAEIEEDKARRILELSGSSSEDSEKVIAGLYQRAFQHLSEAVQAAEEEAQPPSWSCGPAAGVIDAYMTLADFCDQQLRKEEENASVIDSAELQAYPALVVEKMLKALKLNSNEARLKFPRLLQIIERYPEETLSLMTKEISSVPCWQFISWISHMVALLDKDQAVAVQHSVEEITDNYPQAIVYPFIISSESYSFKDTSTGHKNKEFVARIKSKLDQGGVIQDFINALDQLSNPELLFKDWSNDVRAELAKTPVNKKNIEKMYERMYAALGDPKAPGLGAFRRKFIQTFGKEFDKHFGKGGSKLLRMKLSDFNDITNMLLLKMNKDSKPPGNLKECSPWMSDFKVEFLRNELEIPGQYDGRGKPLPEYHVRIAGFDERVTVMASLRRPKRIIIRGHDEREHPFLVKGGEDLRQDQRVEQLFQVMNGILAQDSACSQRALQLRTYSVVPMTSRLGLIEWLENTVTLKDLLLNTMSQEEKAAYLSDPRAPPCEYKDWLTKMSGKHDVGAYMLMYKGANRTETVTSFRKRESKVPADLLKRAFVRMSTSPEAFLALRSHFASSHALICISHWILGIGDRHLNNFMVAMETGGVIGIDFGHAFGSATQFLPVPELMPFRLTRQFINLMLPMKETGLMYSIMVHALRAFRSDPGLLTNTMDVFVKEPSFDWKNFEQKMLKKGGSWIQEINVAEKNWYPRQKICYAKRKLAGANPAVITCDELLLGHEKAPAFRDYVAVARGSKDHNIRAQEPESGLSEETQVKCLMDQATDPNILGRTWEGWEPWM

pIC50 [1]	pIC50 [2]	Structure (SMILES)
< 5.00	6.08	CCNC(=O)Nc1cc(F)c(-c2nc3c(c(N4CCOC[C@@H]4C)n2)CN(C(=O)OCC)C3)cc1F [Example 141, (S)-ethyl 2-(4-(3-ethylureido)-2,5-difluorophenyl)-4-(3-methylmorpholino)-5H-pyrrolo[3,4-d]pyrimidine-6(7H)-carboxylate]
< 5.00	7.02	COC(=O)N1Cc2nc(-c3ccc(NC(=O)NC4CC4)cc3F)nc(N3CCOC[C@@H]3C)c2C1 [Example 146, (S)-methyl 2-(4-(3-cyclopropylureido)-2-fluorophenyl)-4-(3-methylmorpholino)-5H-pyrrolo[3,4-d]pyrimidine-6(7H)-carboxylate]
< 5.00	6.55	C[C@H]1COCCN1c1nc(-c2ccc(NC(=O)NC3CC3)cc2F)nc2c1CN(C)C2 [Example 147, (S)-1-cyclopropyl-3-(3-fluoro-4-(6-methyl-4-(3-methylmorpholino)-6,7-dihydro-5H-pyrrolo[3,4-d]pyrimidin-2-yl)phenyl)urea]
< 5.00	6.82	CCNC(=O)Nc1ccc(-c2nc3c(c(N4CCOCC4)n2)CN(C(=O)OCC)C3)c(F)c1 [Example 151, Ethyl 2-(4-(3-ethylureido)-2-fluorophenyl)-4-morpholino-5H-pyrrolo[3,4-d]pyrimidine-6(7H)-carboxylate]
< 5.00	7.03	CCNC(=O)Nc1ccc(-c2nc3c(c(N4CCOC[C@@H]4C)n2)CN(C(=O)OC)C3)c(F)c1 [Example 152, (S)-methyl 2-(4-(3-ethylureido)-2-fluorophenyl)-4-(3-methylmorpholino)-5H-pyrrolo[3,4-d]pyrimidine-6-(7H)-carboxylate]
< 5.00	6.85	CCNC(=O)Nc1ccc(-c2nc3c(c(N4CCOC[C@@H]4C)n2)CN(C(=O)OC(C)(C)C)C3)c(F)c1 [Example 153, (S)-tert-butyl 2-(4-(3-ethylureido)-2-fluorophenyl)-4-(3-methylmorpholino)-5H-pyrrolo[3,4-d]pyrimidine-6-(7H)-carboxylate]
< 5.00	6.36	CCNC(=O)Nc1ccc(-c2nc3c(c(N4CCOCC4)n2)CN(C)C3)c(F)c1 [Example 154, 1-ethyl-3-(3-fluoro-4-(6-methyl-4-morpholino-6,7-dihydro-5H-pyrrolo[3,4-d]pyrimidin-2-yl)phenyl)urea]
< 5.00	6.09	CC(=O)N1Cc2nc(-c3ccc(NC(=O)NC4CC4)cc3F)nc(N3CCOC[C@@H]3C)c2C1 [Example 155, (S)-1-(4-(6-acetyl-4-(3-methylmorpholino)-6,7-dihydro-5H-pyrrolo[3,4-d]pyrimidin-2-yl)-3-fluorophenyl)-3-cyclopropylurea]
< 5.00	6.87	CCOC(=O)N1Cc2nc(-c3ccc(NC(=O)NC4CC4)cc3F)nc(N3CCOCC3)c2C1 [Example 156, Ethyl 2-(4-(3-cyclopropylureido)-2-fluorophenyl)-4-morpholino-5H-pyrrolo[3,4-d]pyrimidine-6(7H)-carboxylate]
< 5.00	6.57	CN1Cc2nc(-c3ccc(NC(=O)NC4CC4)cc3F)nc(N3CCOCC3)c2C1 [Example 159, 1-(Cyclopropyl)-3-(3-fluoro-4-(6-methyl-4-morpholino-6,7-dihydro-5H-pyrrolo[3,4-d]pyrimidin-2-yl)phenyl)urea]
< 5.00	6.45	CCNC(=O)Nc1ccc(-c2nc3c(c(N4CCOC[C@@H]4C)n2)CN(C)C3)c(F)c1 [Example 160, (S)-1-ethyl-3-(3-fluoro-4-(6-methyl-4-(3-methylmorpholino)-6,7-dihydro-5H-pyrrolo[3,4-d]pyrimidin-2-yl)phenyl)urea]
< 5.00	6.94	CCNC(=O)Nc1ccc(-c2nc3c(c(N4CCOCC4)n2)CN(C(=O)OC)C3)c(F)c1 [Example 162, methyl 2-(4-(3-ethylureido)-2-fluorophenyl)-4-morpholino-5H-pyrrolo[3,4-d]pyrimidine-6(7H)-carboxylate]
< 5.00	6.39	C[C@H]1COCCN1c1nc(-c2ccc(NC(=O)NC3CC3)cc2F)nc2c1CCNC2 [Example 163, (S)-1-cyclopropyl-3-(3-fluoro-4-(4-(3-methylmorpholino)-5,6,7,8-tetrahydropyrido[3,4-d]pyrimidin-2-yl)phenyl)urea]
< 5.00	6.29	CCNC(=O)Nc1ccc(-c2nc3c(c(N4CCOC[C@@H]4C)n2)CCNC3)c(F)c1 [Example 164, (S)-1-ethyl-3-(3-fluoro-4-(4-(3-methylmorpholino)-5,6,7,8-tetrahydropyrido[3,4-d]pyrimidin-2-yl)phenyl)urea]
< 5.00	7.35	C[C@H]1COCCN1c1nc(-c2ccc(NC(=O)NC3CC3)cc2F)nc2c1CCN(C(=O)N(C)C)C2 [Example 165, (S)-2-(4-(3-cyclopropylureido)-2-fluorophenyl)-N,N-dimethyl-4-(3-methylmorpholino)-5,6-dihydropyrido[3,4-d]pyrimidine-7(8H)-carboxamide]
< 5.00	6.21	CCOC(=O)N1Cc2nc(-c3ccc(NC(=O)NCCO)cc3F)nc(N3CCOC[C@@H]3C)c2C1 [Example 167, (S)-Ethyl 2-(2-fluoro-4-(3-(2-hydroxyethyl)ureido)phenyl)-4-(3-methylmorpholino)-5H-pyrrolo[3,4-d]pyrimidine-6(7H)-carboxylate]
< 5.00	7.01	CCOC(=O)N1Cc2nc(-c3ccc(NC(=O)NCCF)cc3F)nc(N3CCOC[C@@H]3C)c2C1 [Example 168, (S)-ethyl 2-(2-fluoro-4-(3-(2-fluoroethyl)ureido)phenyl)-4-(3-methylmorpholino)-5H-pyrrolo[3,4-d]pyrimidine-6(7H)-carboxylate]
< 5.00	6.84	COC(=O)N1Cc2nc(-c3ccc(NC(=O)NCCF)cc3F)nc(N3CCOCC3)c2C1 [Example 169, Methyl 2-(2-fluoro-4-(3-(2-fluoroethyl)ureido)phenyl)-4-morpholino-5H-pyrrolo[3,4-d]pyrimidine-6(7H)-carboxylate]
5.00 to 6.00	6.98	CCOC(=O)N1Cc2nc(-c3ccc(NC(=O)NCCF)cc3F)nc(N3CCOCC3)c2C1 [Example 170, ethyl 2-(2-fluoro-4-(3-(2-fluoroethyl)ureido)phenyl)-4-morpholino-5H-pyrrolo[3,4-d]pyrimidine-6(7H)-carboxylate]
5.00 to 6.00	6.01	CCOC(=O)N1Cc2nc(-c3ccc(NC(=O)NCCO)cc3F)nc(N3CCOCC3)c2C1 [Example 171, ethyl 2-(2-fluoro-4-(3-(2-hydroxyethyl)ureido)phenyl)-4-morpholino-5H-pyrrolo[3,4-d]pyrimidine-6(7H)-carboxylate]
5.00 to 6.00	6.73	CC(C)N1Cc2nc(-c3ccc(NC(=O)NC4CC4)cc3F)nc(N3CCOC[C@@H]3C)c2C1 [Example 172, (S)-1-cyclopropyl-3-(3-fluoro-4-(6-isopropyl-4-(3-methylmorpholino)-6,7-dihydro-5H-pyrrolo[3,4-d]pyrimidin-2-yl)phenyl)urea]
< 5.00	6.76	COC(=O)N1Cc2nc(-c3ccc(NC(=O)NC4CC4)cc3F)nc(N3CCOCC3)c2C1 [Example 173, Methyl 2-(4-(3-cyclopropylureido)-2-fluorophenyl)-4-morpholino-5H-pyrrolo[3,4-d]pyrimidine-6(7H)-carboxylate]
